The source of these data is patent US9394297B2, “Amides as pim inhibitors” (AMGEN INC., priority 2012, dated 2016).

The target of one assay is Pim-1 (Homo sapiens (Human), UniProt P11309). Kind of assay: Pim-Mn enzyme assay (HTRF, 384-well), Pim-1. Type of assay: biochemical. The following applies: read-out: Pim-1-Mn IC50 IP.
The target of a further assay is Pim-2 (Homo sapiens (Human), UniProt Q9P1W9). Kind of assay: Pim-Mn enzyme assay (HTRF, 384-well), Pim-2. Type of assay: biochemical. The following applies: Pim-2 enzyme 0.5 pM, ATP 1.5 μM, BAD (S112) 0.5 μM, HTRF, 22-point curve; read-out: Pim-2-Mn IC50 IP.
Chain of Pim-2 (Q9P1W9 whole entry): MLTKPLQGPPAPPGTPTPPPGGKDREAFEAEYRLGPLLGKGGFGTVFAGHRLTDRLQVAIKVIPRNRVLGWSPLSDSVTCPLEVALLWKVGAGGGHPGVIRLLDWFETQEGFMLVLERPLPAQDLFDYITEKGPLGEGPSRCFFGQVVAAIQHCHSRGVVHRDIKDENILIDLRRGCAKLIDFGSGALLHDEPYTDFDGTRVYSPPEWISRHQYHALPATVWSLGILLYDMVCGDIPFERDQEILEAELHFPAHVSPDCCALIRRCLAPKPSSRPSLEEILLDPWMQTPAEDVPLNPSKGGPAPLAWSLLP
The subject of assay [1] is KMS-12-BM myeloma cell line. Kind of assay: Pim KMS-12 cell assay (phospho-BAD S112 / total BAD, MSD). The following applies: Homo sapiens, KMS-12-BM.
Where [2] appears, read: Pim-1 enzyme 5 pM, ATP 1.5 μM, BAD (S112) 0.5 μM, HTRF, 22-point curve.
[3] abbreviates: read-out: KMS-12-BM IC50 IP, KMS-12-BM cells, phospho-BAD (S112) vs total BAD, 1 hour 50 min with compound.

The structures appear in SMILES notation. Read-outs that look alike come from different tables or passages of the source.

Chain of Pim-1 (P11309 whole entry): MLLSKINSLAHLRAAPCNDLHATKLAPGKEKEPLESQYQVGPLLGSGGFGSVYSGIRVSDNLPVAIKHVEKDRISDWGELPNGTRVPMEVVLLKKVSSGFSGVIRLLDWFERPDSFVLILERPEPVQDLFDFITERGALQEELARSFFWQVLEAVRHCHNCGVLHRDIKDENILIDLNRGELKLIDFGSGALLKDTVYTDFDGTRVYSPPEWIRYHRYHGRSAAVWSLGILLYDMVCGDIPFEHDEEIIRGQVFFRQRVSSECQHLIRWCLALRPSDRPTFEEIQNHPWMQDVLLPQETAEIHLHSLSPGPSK

For `Cc1nc2cccc(-c3cc4c([nH]3)CCNC4=O)c2nc1N(C)C(C)C` [Example 68, 2-(2-methyl-3-(methyl(1-methylethyl)amino)-5-quinoxalinyl)-1,5,6,7-tetrahydro-4H-pyrrolo[3,2-c]pyridin-4-one], the concentration for half-maximal inhibition (IC50) on Pim-1 (setting [2]) came out at 4.5 nM; on Pim-2 it was 6.1 nM; in assay [1] (setting [3]), 445 nM.

As to `CCNc1nc2c(-c3cc4c([nH]3)CCNC4=O)cccc2nc1C` [Example 69, 2-(3-(ethylamino)-2-methyl-5-quinoxalinyl)-1,5,6,7-tetrahydro-4H-pyrrolo[3,2-c]pyridin-4-one], the concentration for half-maximal inhibition (IC50) was determined as 3.4 nM at Pim-1 (setting [2]), 1.7 nM at Pim-2 and 223 nM in assay [1] (read-out: KMS-12-BM IC50 IP).

`Cc1nc2cccc(-c3cc4c([nH]3)CCNC4=O)c2nc1NCC(C)(C)N` [Example 70, 2-(3-((2-amino-2-methylpropyl)amino)-2-methyl-5-quinoxalinyl)-1,5,6,7-tetrahydro-4H-pyrrolo[3,2-c]pyridin-4-one]: the half-maximal inhibitory concentration (IC50) came out at 4.3 nM at Pim-1 (setting [2]), 6.3 nM on Pim-2 and 2910 nM in assay [1] (setting [3]).

Take `Cc1nc2cccc(-c3cc4c([nH]3)CCNC4=O)c2nc1NC1CC(O)C1` (stereo not drawn) [Example 72, 2-(3-((3-hydroxycyclobutyl)amino)-2-methyl-5-quinoxalinyl)-1,5,6,7-tetrahydro-4H-pyrrolo[3,2-c]pyridin-4-one]: the IC50 is 3.1 nM at Pim-1 (setting [2]), 1.9 nM on Pim-2 and 713 nM in assay [1] (setting [3]).

`Cc1nc2cccc(-c3cc4c([nH]3)CCNC4=O)c2nc1N[C@@H]1CCCNC1` [Example 75, 2-(2-methyl-3-((3R)-3-piperidinylamino)-5-quinoxalinyl)-1,5,6,7-tetrahydro-4H-pyrrolo[3,2-c]pyridin-4-one]: the IC50 was 0.6 nM at Pim-1 (setting [2]), 1.2 nM on Pim-2 and 892 nM in assay [1] (setting [3]).

`Cc1nc2cccc(-c3cc4c([nH]3)CCNC4=O)c2nc1N[C@H]1CCCNC1` [Example 76, (S)-2-(2-methyl-3-(piperidin-3-ylamino)quinoxalin-5-yl)-6,7-dihydro-1H-pyrrolo[3,2-c]pyridin-4(5H)-one]: the IC50 on Pim-1 (setting [2]) was 8.1 nM; on Pim-2, 27 nM; in assay [1] (setting [3]), 6130 nM.

In the case of `Cc1nc2cccc(-c3cc4c([nH]3)C3(CC3)CNC4=O)c2nc1NC1CC1` [Example 77, 2′-(3-(cyclopropylamino)-2-methyl-5-quinoxalinyl)-5′,6′-dihydrospiro[cyclopropane-1,7′-pyrrolo[3,2-c]pyridin]-4′(1′H)-one], the values for the IC50 (on Pim-1 (setting [2]); at Pim-2; in assay [1] (read-out: KMS-12-BM IC50 IP)) were 1.6 nM, 3.8 nM and 494 nM, respectively.

Regarding `O=C1NCCc2[nH]c(-c3cccc4ccc(NC5CC5)nc34)cc21` [Example 99, 2-(2-(cyclopropylamino)quinolin-8-yl)-6,7-dihydro-1H-pyrrolo[3,2-c]pyridin-4(5H)-one], the IC50 came out at 1.1 nM on Pim-1 (setting [2]), 7 nM at Pim-2 and 723 nM in assay [1] (setting [3]).

Consider `Cc1nc2cccc(-c3cc4n(c3)CCNC4=O)c2nc1NC1(C)CC1` [Example 100, 7-(2-methyl-3-((1-methylcyclopropyl)amino)quinoxalin-5-yl)-3,4-dihydropyrrolo[1,2-a]pyrazin-1(2H)-one 2,2,2-trifluoroacetate], for which the results for the IC50 (at Pim-1 (setting [2]); at Pim-2; in assay [1] (setting [3])) were 1.34 nM, 0.961 nM and 144 nM, respectively.

Take `Cc1nc2cccc(-c3cc4c([nH]3)CCNC4=O)c2nc1NCC(C)(C)O` [Example 148, 2-(3-((2-hydroxy-2-methylpropyl)amino)-2-methylquinoxalin-5-yl)-6,7-dihydro-1H-pyrrolo[3,2-c]pyridin-4(5H)-one]: the IC50 came out at 8 nM on Pim-1 (setting [2]), 8.7 nM at Pim-2 and 420 nM in assay [1] (setting [3]).

With `Cc1nc2cccc(-c3cc4c([nH]3)CCNC4=O)c2nc1NC1(C)CCCCC1` [Example 155, 2-(2-methyl-3-((1-methylcyclohexyl)amino)quinoxalin-5-yl)-6,7-dihydro-1H-pyrrolo[3,2-c]pyridin-4(5H)-one], the IC50 is 0.7 nM on Pim-1, 1.5 nM at Pim-2 and 292 nM in assay [1] (setting [3]).

With `CC(C)(C)Nc1cnc2cccc(-c3cc4n(c3)CCNC4=O)c2n1` [Example 173, 7-(3-(tert-butylamino)quinoxalin-5-yl)-3,4-dihydropyrrolo[1,2-a]pyrazin-1(2H)-one], the values for the IC50 (at Pim-1 (setting [2]); on Pim-2; in assay [1] (setting [3])) were 1.3 nM, 1.4 nM and 181 nM, respectively.

As to `Cc1nc2cccc(-c3cc4n(c3)CCNC4=O)c2nc1NC(C)(C)C` [Example 174, 7-(3-(tert-butylamino)-2-methylquinoxalin-5-yl)-3,4-dihydropyrrolo[1,2-a]pyrazin-1(2H)-one], the IC50 on Pim-1 (setting [2]) was found to be 5.9 nM; on Pim-2, 3.5 nM; in assay [1] (setting [3]) it was 336 nM.

For `Cc1nc2cccc(-c3cc4c([nH]3)CCNC4=O)c2nc1NC1(C)CC1` [Example 202, 2-(2-methyl-3-((1-methylcyclopropyl)amino)quinoxalin-5-yl)-6,7-dihydro-1H-pyrrolo[3,2-c]pyridin-4(5H)-one], the IC50 at Pim-1 (setting [2]) is 0.3 nM; on Pim-2, 0.3 nM; in assay [1] (setting [3]), 41.3 nM.

Regarding `Cc1nc2cccc(-c3cc4c([nH]3)CCNC4=O)c2nc1NC1(C)CCOCC1` [Example 203, 2-(2-methyl-3-((4-methyltetrahydro-2H-pyran-4-yl)amino)quinoxalin-5-yl)-6,7-dihydro-1H-pyrrolo[3,2-c]pyridin-4(5H)-one], the IC50 worked out at 1.2 nM on Pim-1 (setting [2]), 5.6 nM at Pim-2 and 232 nM in assay [1] (setting [3]).

As to `CC(C)(C)Nc1cnc2cccc(-c3cc4c([nH]3)CCNC4=O)c2n1` [Example 210, 2-(3-(tert-butylamino)quinoxalin-5-yl)-6,7-dihydro-1H-pyrrolo[3,2-c]pyridin-4(5H)-one], the IC50 at Pim-1 (setting [2]) stood at 0.2 nM; on Pim-2 it was 0.3 nM; in assay [1] (setting [3]), 60.1 nM.

Regarding `CC1(Nc2cnc3cccc(-c4cc5c([nH]4)CCNC5=O)c3n2)CC1` [Example 211, 2-(3-((1-methylcyclopropyl)amino)quinoxalin-5-yl)-6,7-dihydro-1H-pyrrolo[3,2-c]pyridin-4(5H)-one], the IC50 on Pim-1 (setting [2]) is 0.2 nM; on Pim-2, 0.3 nM; in assay [1] (setting [3]), 49.7 nM.

Consider `CC1(C)CCCCN1c1cnc2cccc(-c3cc4c([nH]3)CCNC4=O)c2n1` [Example 212, 2-(3-(2,2-dimethylpiperidin-1-yl)quinoxalin-5-yl)-6,7-dihydro-1H-pyrrolo[3,2-c]pyridin-4(5H)-one], for which the concentration for half-maximal inhibition (IC50) on Pim-1 (setting [2]) worked out at 1.3 nM; on Pim-2 it was 2.3 nM; in assay [1] (setting [3]), 538 nM.

Turning to `CC1(C)COCCN1c1cnc2cccc(-c3cc4c([nH]3)CCNC4=O)c2n1` [Example 213, 2-(3-(3,3-dimethylmorpholino)quinoxalin-5-yl)-6,7-dihydro-1H-pyrrolo[3,2-c]pyridin-4(5H)-one], the figures for the IC50 (at Pim-1; at Pim-2; in assay [1] (setting [3])) were 1.6 nM, 3.2 nM and 227 nM, respectively.

With `CC1(C)CN(c2cnc3cccc(-c4cc5c([nH]4)CCNC5=O)c3n2)CCN1` [Example 214, 2-(3-(3,3-dimethylpiperazin-1-yl)quinoxalin-5-yl)-6,7-dihydro-1H-pyrrolo[3,2-c]pyridin-4(5H)-one], the half-maximal inhibitory concentration (IC50) at Pim-1 (setting [2]) turned out to be 4.7 nM; at Pim-2, 58 nM; in assay [1] (setting [3]) it was 9870 nM.

Take `CN(c1cnc2cccc(-c3cc4c([nH]3)CCNC4=O)c2n1)C(C)(C)C` [Example 215, 2-(3-(tert-butyl(methyl)amino)quinoxalin-5-yl)-6,7-dihydro-1H-pyrrolo[3,2-c]pyridin-4(5H)-one]: the IC50 stood at 0.6 nM at Pim-1 (setting [2]), 0.7 nM on Pim-2 and 153 nM in assay [1] (read-out: KMS-12-BM IC50 IP).

In the case of `CC1(C)CNCCN1c1cnc2cccc(-c3cc4c([nH]3)CCNC4=O)c2n1` [Example 217, 2-(3-(2,2-dimethylpiperazin-1-yl)quinoxalin-5-yl)-6,7-dihydro-1H-pyrrolo[3,2-c]pyridin-4(5H)-one], the values for the concentration for half-maximal inhibition (IC50) (on Pim-1 (setting [2]); at Pim-2; in assay [1] (setting [3])) were 2 nM, 5.3 nM and 933 nM, respectively.

Take `Cc1nc2cccc(-c3cc4c([nH]3)CCNC4=O)c2nc1N` [Example 218, 2-(3-amino-2-methylquinoxalin-5-yl)-6,7-dihydro-1H-pyrrolo[3,2-c]pyridin-4(5H)-one]: the IC50 was found to be 36 nM on Pim-1 (setting [2]), 17.4 nM on Pim-2 and 1090 nM in assay [1] (setting [3]).

As to `CNc1nc2c(-c3cc4c([nH]3)CCNC4=O)cccc2nc1C` [Example 219, 2-(2-methyl-3-(methylamino)quinoxalin-5-yl)-6,7-dihydro-1H-pyrrolo[3,2-c]pyridin-4(5H)-one], the concentration for half-maximal inhibition (IC50) on Pim-1 (setting [2]) was determined as 7.8 nM; on Pim-2, 4.1 nM; in assay [1] (setting [3]), 346 nM.

In the case of `CCN(c1cnc2cccc(-c3cc4c([nH]3)CCNC4=O)c2n1)C(C)(C)C` [Example 220, 2-(3-(tert-butyl(ethyl)amino)quinoxalin-5-yl)-6,7-dihydro-1H-pyrrolo[3,2-c]pyridin-4(5H)-one], the IC50 on Pim-1 (setting [2]) was found to be 0.1 nM; on Pim-2, 0.1 nM; in assay [1] (setting [3]) it was 86.3 nM.

Take `Cc1nc2cccc(-c3cc4c([nH]3)CCNC4=O)c2nc1SC(C)(C)C` [Example 221, 2-(3-(tert-butylthio)-2-methylquinoxalin-5-yl)-6,7-dihydro-1H-pyrrolo[3,2-c]pyridin-4(5H)-one]: the IC50 on Pim-1 (setting [2]) amounted to 3.1 nM; on Pim-2, 4.3 nM; in assay [1] (setting [3]), 750 nM.
